Drawing on patent US9102688B2, “Sulfonaminoquinoline hepcidin antagonists” (Vifor (International) AG, priority 2011, dated 2015), this text covers IC50 for 15 molecules.

The experiment addresses T1, human ferroportin (Homo sapiens, UniProt Q9NP59).
T1 construct: expressed in transfected cells
T1 sequence (Q9NP59 1-571): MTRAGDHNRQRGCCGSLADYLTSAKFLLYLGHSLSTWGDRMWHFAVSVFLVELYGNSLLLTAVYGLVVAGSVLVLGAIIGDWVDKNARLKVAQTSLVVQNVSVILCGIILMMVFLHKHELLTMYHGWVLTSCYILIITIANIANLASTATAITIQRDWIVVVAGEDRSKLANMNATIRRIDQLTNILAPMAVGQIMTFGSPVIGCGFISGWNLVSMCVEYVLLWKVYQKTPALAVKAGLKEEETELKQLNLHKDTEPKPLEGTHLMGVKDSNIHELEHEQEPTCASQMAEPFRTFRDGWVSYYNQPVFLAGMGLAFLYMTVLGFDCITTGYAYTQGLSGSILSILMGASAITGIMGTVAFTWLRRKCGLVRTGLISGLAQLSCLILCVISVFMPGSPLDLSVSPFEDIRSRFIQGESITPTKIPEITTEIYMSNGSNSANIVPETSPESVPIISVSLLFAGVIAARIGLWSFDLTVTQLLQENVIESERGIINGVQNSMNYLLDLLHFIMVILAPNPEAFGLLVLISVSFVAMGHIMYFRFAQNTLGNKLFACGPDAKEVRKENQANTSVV
Nature of the experiment: ferroportin internalization assay (inhibition of hepcidin-induced internalization of Fpn). It counts as cell-based. Conditions: MDCK-FPN-HaloTag cells, 100 nM hepcidin, overnight incubation; concentration range from 0.04 to 40 μM. Put shortly:
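MDCK cells stably expressing human ferroportin–HaloTag were labelled with TMR ligand, then incubated overnight at 37 °C with compound plus 100 nM hepcidin (final). After fixation and nuclear staining, confocal imaging quantified membrane Fpn fluorescence to measure blocking of hepcidin-induced internalization.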

One may read the IC50 as the concentration that inhibits the measured activity by half. A higher IC50 goes with lower potency. The molecule `O=S1(=O)Nc2c(cc(Cl)c3cccnc23)-c2cc(N3CCC(O)CC3)ccc21` [Example 504, 1-(12-Chloro-6,6-dioxo-5,6-dihydro-6λ*6*-thia-4,5-diaza-chrysen-9-yl)-piperidin-4-ol] gave an IC50 of 1100 nM.
Next, `CCN(CC)c1ccc2c(c1)-c1cc(Cl)c3cccnc3c1NS2(=O)=O` [Example 505, (12-Chloro-6,6-dioxo-5,6-dihydro-6λ*6*-thia-4,5-diaza-chrysen-9-yl)-diethyl-amine]: 2190 nM; `O=S1(=O)Nc2c(ccc3cccnc23)-c2cc(N3CCC(O)C3)ccc21` (stereo not drawn) [Example 506, 1-(6,6-Dioxo-5,6-dihydro-6λ*6*-thia-4,5-diaza-chrysen-9-yl)-pyrrolidin-3-ol]: 2010 nM.
Next, `COCCNc1ccc2c(c1)-c1cc(Cl)c3cccnc3c1NS2(=O)=O` [Example 507, (12-Chloro-6,6-dioxo-5,6-dihydro-6λ*6*-thia-4,5-diaza-chrysen-9-yl)-(2-methoxy-ethyl)-amine]: 1980 nM; `O=S1(=O)Nc2c(cc(Cl)c3cccnc23)-c2cc(N3CCOCC3)ccc21` [Example 509, 12-Chloro-9-morpholin-4-yl-5H-6-thia-4,5-diaza-chrysene 6,6-dioxide]: 1620 nM; `O=S1(=O)Nc2c(cc(Cl)c3cccnc23)-c2cc(NCCN3CCOCC3)ccc21` [Example 511, (12-Chloro-6,6-dioxo-5,6-dihydro-6λ*6*-thia-4,5-diaza-chrysen-9-yl)-(2-morpholin-4-yl-ethyl)-amine]: 620 nM.
In turn, `O=S1(=O)Nc2c(cc(Cl)c3cccnc23)-c2cc(NC(CO)CO)ccc21` [Example 512, 2-(12-Chloro-6,6-dioxo-5,6-dihydro-6λ*6*-thia-4,5-diaza-chrysen-9-ylamino)-propane-1,3-diol] yielded an IC50 of 13400 nM.
The same measure for `O=S1(=O)Nc2c(cc(Cl)c3cccnc23)-c2cc(OC3CCCC3)ccc21` [Example 514, 12-Chloro-9-cyclopentyloxy-5H-6-thia-4,5-diaza-chrysene 6,6-dioxide]: 420 nM; for `Nc1ccc2c(c1)-c1cc(Cl)c3cccnc3c1NS2(=O)=O` [Example 519, 12-Chloro-6,6-dioxo-5,6-dihydro-6λ*6*-thia-4,5-diaza-chrysen-9-ylamine]: 3570 nM; for `CNC(=O)c1ccc2c(c1)-c1ccc3cccnc3c1NS2(=O)=O` [Example 522, 6,6-Dioxo-5,6-dihydro-6λ*6*-thia-4,5-diaza-chrysene-9-carboxylic acid methylamide]: 13200 nM.
The same measure for `CN(C)C(=O)c1ccc2c(c1)-c1cc(Cl)c3cccnc3c1NS2(=O)=O` [Example 525, 12-Chloro-6,6-dioxo-5,6-dihydro-6λ*6*-thia-4,5-diaza-chrysene-9-carboxylic acid dimethylamide]: 4060 nM.
As to `O=C(c1ccc2c(c1)-c1cc(Cl)c3cccnc3c1NS2(=O)=O)N1CCOCC1` [Example 527, (12-Chloro-6,6-dioxo-5,6-dihydro-6λ*6*-thia-4,5-diaza-chrysen-9-yl)-morpholin-4-yl-methanone], 2740 nM corresponded to half-maximal inhibition (IC50).
The same measure for `COCCNC(=O)c1ccc2c(c1)-c1cc(Cl)c3cccnc3c1NS2(=O)=O` [Example 528, 12-Chloro-6,6-dioxo-5,6-dihydro-6λ*6*-thia-4,5-diaza-chrysene-9-carboxylic acid (2-methoxy-ethyl)-amide]: 3900 nM; for `O=C(c1ccc2c(c1)-c1cc(Cl)c3cccnc3c1NS2(=O)=O)N1CCC(O)C1` (stereo not drawn) [Example 531, (12-Chloro-6,6-dioxo-5,6-dihydro-6λ*6*-thia-4,5-diaza-chrysen-9-yl)-(3-hydroxy-pyrrolidin-1-yl)-methanone]: 15000 nM; for `O=C(OC1CCCC1)c1ccc2c(c1)-c1cc(Cl)c3cccnc3c1NS2(=O)=O` [Example 533, 12-Chloro-6,6-dioxo-5,6-dihydro-6λ*6*-thia-4,5-diaza-chrysene-9-carboxylic acid cyclopentyl ester]: 990 nM.
